Measured values reported in publication PMC7845692 (Frontiers in Pharmacology, 2020).
Where two headings read alike, the source gives them in different places.

Columns and labels:
[1] = tested on: Human coronavirus OC43; test: HCoV-OC43 immunofluorescent assay (IFA) against N protein in HCT-8 cells; format: cell-based; settings: for EC50: read-out: Human coronavirus OC43 EC50 (IFA); for Human coronavirus OC43 Selectivity index: CC50/EC50, HCT-8 cells
[2] = HCT-8 cell viability (MTS); settings: human
[3] = cell cytotoxicity by visualization (FIPV host cells); settings: cat
Description: (§2) The serotype II FIPV Taiwan isolate NTU156 strain, a kind gift from National Taiwan University, was propagated and titrated in Fcwf-4 cells ([Lin et al., 2009]). The EC50 for anti-FIPV activity and CC50 for cell cytotoxicity were determined as previously described ([Yang et al., 2020b]).

[4] = tested on: Feline infectious peritonitis virus; test: anti-FIPV activity, cytopathic effect by visualization in Fcwf-4 cells; settings: for EC50: Alphacoronavirus 1, read-out: Feline infectious peritonitis virus EC50 CPE/visualization
Description: as §2

[5] = tested on: HCoV-OC43; test: HCoV-OC43 viral yield, end point dilution assay / TCID50; format: cell-based, Human coronavirus OC43; settings: for concentration accomplishing complete reduction of HCoV-OC43 viral yield: reduction ∼7–8 log
[6] = in vitro; settings: human
[7] = tested on: SARS-CoV-2; test: microbe, parasite or virus in culture; format: cell-based; settings: Severe acute respiratory syndrome coronavirus 2, Vero C1008; Vero E6 cells, 5–7 days, Figure 5B-b; read-out: SARS-CoV-2 plaque assay EC50
[8] = tested on: HCoV-229E; test: HCoV-229E viral RNA (ORF1, ORF N) by semi-RT-qPCR in MRC-5 cells; format: cell-based, Human coronavirus 229E; settings: MRC-5, MOI 1, 30 h.p.i., 10–300 nM, dose dependent
Description: These experiments were performed as described ([Yang et al., 2007b]). Mock or HCoV-229E infected (MOI of 1) lysates were processed and prepared at 30 h.p.i. without or with compound treatment. The total RNA was extracted with TRIzol reagent (Invitrogen). The relative viral RNA expression levels were determined by semi-RT-qPCR, analyzed with the ImageJ Analyzer program (http://imagej.nih.gov/ij/index.html), and normalized with the housekeeping gene GAPDH. The primers used to amplify the PCR products were 5′-GGCGAGGTGGAATTTGTTTA-3′ and 5′-ACCTTTAAGCCACCATGTGC-3′ for ORF1; 5′-TCTGCCAAGAGTCTTGCTCG-3′ and 5′-AGCATAGCAGCTGTTGACGG-3′ for ORF N. The amplification of target cDNA was conducted under the following conditions: 25 cycles of 95°C for 30 s, 55°C for 20 s, and 72°C for 30 s for ORF N; 29 cycles of 95°C for 30 s, 55°C for 20 s, and 72°C for 30 s for ORF1, and 35 cycles of 95°C for 30 s, 55°C for 20 s, and 72°C for 30 s for GAPDH. The final PCR products were subjected to electrophoresis on 2% agarose gel containing ethidium bromide along with DNA markers.

[9] = tested on: SARS-CoV-2; test: SARS-CoV-2 cytopathic effect by visualization in Vero E6 cells; format: cell-based
Description: (§1) CPE was performed as described ([Wu et al., 2004]). For IFA, Vero E6 cells (BCRC number: 60476; derived from ATCC CRL-1586) were treated with each compound at the indicated concentration for 1 h at 37°C. The cells were adsorbed with SARS-CoV-2 (TCDC#4) (sequence available on the GISAID website) at an MOI = 0.01 for 1 h at 37°C. After virus adsorption, the cells were washed with PBS and fresh medium containing each compound at the indicated concentration was added. After 2 days, cells were fixed with 4% paraformaldehyde and permeabilized with 0.5% Triton X-100. The cells were stained with anti-SARS-CoV-2 N protein antibody, provided by Dr. An-Suei Yang of the Genomics Research Center, Academia Sinica, and goat anti-human IgG-Alexa Fluor 488 (A11013, Invitrogen) (in green). The nuclei were counter stained with DAPI (in blue) (D1306, Invitrogen). The N protein expression was measured using a high-content image analysis system (Molecular Devices). The cell viability was determined by Cell Counting Kit-8 (CCK-8) (Sigma-Aldrich, cat #96992). EC50 and CC50 values were calculated by Prism software.

[10] = Vero E6 cytotoxicity by visualization; format: cell-based; settings: African green monkey, Vero E6 cells; read-out: SARS-CoV-2 CC50 Visualization
Description: as §1

[11] = tested on: SARS-CoV-2; test: SARS-CoV-2 IFA against N protein in Vero E6 cells; format: cell-based; settings: for SARS-CoV-2 Selectivity index (IFA/CCK-8): CC50/EC50, Vero E6 cells
Description: as §1

[12] = Vero E6 cell viability (CCK-8); format: cell-based; settings: African green monkey, Vero E6 cells; read-out: SARS-CoV-2 CC50 CCK-8
Description: as §1

[13] = in vitro; settings: human, MRC-5 cells
[14] = tested on: HCoV-229E; test: HCoV-229E viral yield, end point dilution assay / TCID50; settings: MRC-5, MOI 0.05; for complete reduction of HCoV-229E viral yield: at 100, 300 and 600 nM respectively (dbq33b, dbq33b4p7, PI09); for concentration giving complete reduction of HCoV-229E viral yield: reduction 6–7 log
[15] = tested on: Human coronavirus 229E; test: HCoV-229E cytopathic effect, crystal violet absorbance in MRC-5 cells; settings: CC50/EC50, MRC-5 cells
[16] = Betacoronavirus 1, OC43, HCT-8, 72 h
[17] = Betacoronavirus 1, OC43, HCT-8 cells, MOI 0.05, 72 h.p.i., means ± SD
[18] = HCT-8, MOI 0.05, reduction ∼2–3 orders of magnitude
[19] = Severe acute respiratory syndrome coronavirus 2, Vero C1008, 48 h, read-out: SARS-CoV-2 EC50 IFA, Vero E6 cells, MOI 0.01, 2 d.p.i., N protein
[20] = at concentrations of up to 50 μM

Row | SMILES | EC50 [1, 16] | Human coronavirus OC43 Selectivity index [1] | CC50 at 72 h ([2]; HCT-8 cells) | CC50 [3] | EC50 [4] | Feline infectious peritonitis virus Selectivity index ([4]; CC50/EC50, Fcwf-4 cells) | EC50 [1, 17] | CC50 [6] | other results
1 | COc1cc2c3c(c4cc(OC)c(OC)c(OC)c4c2cc1OC)CC1CCC[N+]1([O-])C3 (stereo not shown) [031p13-3] | 1890 ± 228 nM | >5.3 | > 10000 nM | > 50000 nM | 1560 nM | >32.1 | – | – | –
2 | C[C@]12CC[C@H](O)C[C@H]1CC[C@@H]1[C@@H]2CC[C@]2(C)[C@@H](c3ccc(=O)oc3)CC[C@]12O [Bufalin, bufalin, reference compound] | 56 ± 4 nM | 16.1 | – | 542 ± 213 nM | 19 ± 9 nM | 28.5 | – | – | concentration of maximum reduction of HCoV-OC43 viral yield [5]: 100 nM; maximum reduction of HCoV-OC43 viral yield [5]: 2–3 orders of magnitudes; CC50 at 72 h [2]: 900 ± 180 nM
3 | C[C@]12CC[C@H](O)C[C@H]1CC[C@@H]1[C@@H]2CC[C@]2(C)[C@@H](C3=CC(=O)OC3)CC[C@]12O [Digitoxigenin, digitoxigenin] | 323 ± 20 nM | >7.7 | – | 3560 ± 375 nM | 458 ± 18 nM | 7.8 | – | – | CC50 at 72 h [2]: > 2500 nM
4 | C[C@H]1O[C@@H](O[C@H]2[C@@H](O)C[C@H](O[C@H]3[C@@H](O)C[C@H](O[C@H]4CC[C@@]5(C)[C@H](CC[C@@H]6[C@@H]5C[C@@H](O)[C@]5(C)[C@@H](C7=CC(=O)OC7)CC[C@]65O)C4)O[C@@H]3C)O[C@@H]2C)C[C@H](O)[C@@H]1O [Digoxin, digoxin] | – | 5.2 | – | 1190 ± 603 nM | 212 ± 96 nM | – | 269 ± 45 nM | 1400 ± 350 nM | Feline infectious peritonitis virus Selectivity index [4]: 5.6
5 | N#C[C@@]1(c2ccc3c(N)ncnn23)O[C@H](CO)[C@@H](O)[C@H]1O [GS441524, GS-441524] | 6930 nM | >7.2 | – | – | – | – | – | – | EC50 [7]: 860 ± 29.2 nM; CC50 at 72 h [6]: > 50000 nM
6 | CO[C@H]1C[C@H](O[C@H]2CC[C@@]3(C)[C@H](CC[C@@H]4[C@@H]3CC[C@]3(C)[C@@H](C5=CC(=O)OC5)[C@@H](OC(C)=O)C[C@]43O)C2)O[C@@H](C)[C@@H]1O [Oleandrin, oleandrin] | – | 3.8 | – | 2850 ± 1070 nM | 729 ± 244 nM | 3.9 | 56 ± 5 nM | 211 ± 62 nM | maximum reduction of HCoV-OC43 viral yield [5]: 2–3 orders of magnitudes; concentration of maximum reduction of HCoV-OC43 viral yield [5, 18]: 30 nM
7 | C[C@@H]1O[C@@H](O[C@H]2C[C@@H](O)[C@]3(CO)[C@H]4[C@H](O)C[C@]5(C)[C@@H](C6=CC(=O)OC6)CC[C@]5(O)[C@@H]4CC[C@]3(O)C2)[C@H](O)[C@H](O)[C@H]1O [Ouabain, ouabain] | – | 7.1 | – | 6250 ± 2160 nM | 1560 nM | 4.0 | 71 ± 7 nM | 504 ± 11 nM | maximum reduction of HCoV-OC43 viral yield [5]: 2–3 orders of magnitudes; concentration of maximum reduction of HCoV-OC43 viral yield [5, 18]: 10 nM
8 | COc1cc2c3c(c4cc(OC)c(OC)cc4c2cc1OC)CN1CCCC1C3 (stereo not shown) [PI09] | – | >147 | – | 6380 ± 2250 nM | 62 ± 25 nM | 102.8 | 68 ± 3 nM | > 10000 nM | complete reduction of HCoV-OC43 viral yield [5]: 7–8 log of magnitudes; concentration accomplishing complete reduction of HCoV-OC43 viral yield ([5]; HCT-8, MOI 0.05): 300 nM; effect on HCoV-229E viral genome replication and subgenomic viral RNA syntheses (RT-PCR ORF1, ORF N) [8]: inhibited HCoV-229E viral genome replication and subgenomic viral RNA syntheses; EC50 ([9]; Severe acute respiratory syndrome coronavirus 2, Vero C1008, read-out: SARS-CoV-2 EC50 CPE/visualization): 78 nM; CC50 [10]: 5000 nM; SARS-CoV-2 Selectivity index (IFA/CCK-8) [11]: 46; EC50 [11, 19]: 77 nM; EC50 ([11]; read-out: SARS-CoV-2 EC50 IFA, Vero E6 cells, MOI 0.01, 2 d.p.i., N protein): 76.8 nM; CC50 [12]: 3550 nM; CC50 [13]: 6640 nM; complete reduction of HCoV-229E viral yield [14]: 6–7 log of magnitudes; concentration giving complete reduction of HCoV-229E viral yield [14]: 600 nM; Human coronavirus 229E Selectivity index [15]: 93
9 | COc1cc2c3c(c4cc(OC)c(OC)cc4c2cc1OC)CN1CCCCC1C3 (stereo not shown) [PQ09] | 52 ± 6 nM | >193 | > 10000 nM | 3090 ± 886 nM | 17 ± 6 nM | 182.0 | – | – | –
10 | CCC(CC)COC(=O)[C@H](C)N[P@](=O)(OC[C@H]1O[C@@](C#N)(c2ccc3c(N)ncnn23)[C@H](O)[C@@H]1O)Oc1ccccc1 [Remdesivir] | 947 ± 320 nM | >52.8 | – | – | – | – | – | > 50000 nM | EC50 [7]: 647 ± 16.7 nM
11 | CCN1CCc2c(c3cc(OC)c(OC)cc3c3cc(OC)ccc23)C1 [dbq29a] | 213 ± 62 nM | >46.9 | > 10000 nM | 4310 ± 1120 nM | 352 ± 77 nM | 12.3 | – | – | –
12 | CCN1Cc2c(c3ccc(OC)cc3c3cc(OC)c(OC)cc23)C(O)C1C (stereo not shown) [dbq33b4p7] | 56 ± 6 nM | >179 | > 10000 nM | 6250 ± 2160 nM | 20 ± 7 nM | 312.5 | – | – | complete reduction of HCoV-OC43 viral yield ([5]; HCT-8, MOI 0.05, supernatant 72 h.p.i., at 30, 100 and 300 nM respectively (dbq33b, dbq33b4p7, PI09)): 7–8 log of magnitudes; concentration accomplishing complete reduction of HCoV-OC43 viral yield ([5]; HCT-8, MOI 0.05): 100 nM; effect on HCoV-229E viral genome replication and subgenomic viral RNA syntheses (RT-PCR ORF1, ORF N) [8]: inhibited HCoV-229E viral genome replication and subgenomic viral RNA syntheses; SARS-CoV-2 Selectivity index (CPE/visualization) ([9]; CC50/EC50, Vero E6 cells): 125; EC50 ([9]; Severe acute respiratory syndrome coronavirus 2, Vero C1008, Vero E6 cells, means from duplicate, read-out: SARS-CoV-2 EC50 CPE/visualization): 20 nM; CC50 [10]: 2500 nM; SARS-CoV-2 Selectivity index (IFA/CCK-8) [11]: 93; EC50 [11, 19]: 32 nM; EC50 ([11]; Vero E6 cells, MOI 0.01, 2 d.p.i., N protein, read-out: SARS-CoV-2 EC50 IFA): 31.9 nM; CC50 [12]: 2970 nM; CC50 [13]: 7360 nM; complete reduction of HCoV-229E viral yield [14]: 6–7 log of magnitudes; concentration giving complete reduction of HCoV-229E viral yield [14]: 300 nM; Human coronavirus 229E Selectivity index [15]: 290
13 | C[C@]12CC[C@H](O)C[C@H]1CC[C@@H]1[C@@H]2CC[C@]2(C)[C@@](O)(c3ccoc3)CC[C@]12O [rostafuroxin] | – | – | – | – | – | – | – | – | inhibitory activity against HCoV-OC43 [1, 20]: did not exhibit any inhibitory activity; inhibitory activity against FIPV [4, 20]: did not exhibit any inhibitory activity
